Read-outs that look alike come from different tables or passages of the source.
Tests used:
Mcl-1 = Mcl-1 (Homo sapiens (Human), UniProt Q07820); test: Fluorescence polarization anisotropy (FPA) competition assay, FITC-Bak or FITC-Bim BH3 peptide; type: binding; conditions: read-out: Ki for Inhibition of Mcl-1 by FPA assay
[1] = tested on: H929 human cancer cell lines; test: Cellular viability / proliferation (Cell TiterGlo, 72 h); type: cell-based
How it was run: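 1,000 cells/well, 10% FBS medium; compound added at 24 h, 2-fold dilutions from 50 μM top, DMSO <1% final. 72 h exposure, CellTiterGlo 30 min RT dark, luminescence read. IC50 by 4-parameter fit.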

[2] = H929 cells, 72 h, Cell TiterGlo, 10% FBS, read-out: GI50 on cellular proliferation of H929 human cancer cell lines
[3] = Homo sapiens, NCI-H929, 72 h, read-out: GI50 on cellular proliferation of H929 human cancer cell lines, H929 cells, 72 h, Cell TiterGlo, 10% FBS

Chain of Mcl-1 (Q07820 172-327): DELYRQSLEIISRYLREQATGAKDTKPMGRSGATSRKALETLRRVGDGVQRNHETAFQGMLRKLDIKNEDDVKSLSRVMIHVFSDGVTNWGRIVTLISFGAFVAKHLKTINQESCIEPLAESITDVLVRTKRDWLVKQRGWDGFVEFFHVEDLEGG

SMILES	Ki (Mcl-1) [nM]	GI50 [1, 2] [nM]	GI50 [1, 3] [nM]	GI50 ([1]; read-out: GI50 on cellular proliferation of H929 human cancer cell lines, H929 cells, 72 h, Cell TiterGlo, 10% FBS) [nM]
Cc1cc(OCCCc2c3n(c4c(-c5c(C)nn(C)c5C)c(Cl)ccc24)[C@H](C)CN(c2ccc(O)c4cc(C(=O)O)n(C)c24)C3=O)cc(C)c1Cl [Example 321, (M, R)-7-(7-Chloro-10-(3-(4-chloro-3,5-dimethylphenoxy)propyl)-4-methyl-1-oxo-6-(1,3,5-trimethyl-1H-pyrazol-4-yl)-3,4-dihydropyrazino[1,2-a]indol-2(1H)-yl)-4-hydroxy-1-methyl-1H-indole-2-carboxylic acid]	< 1	1400		
CC[C@@H]1Cn2c(c(CCCOc3cc(C)c(Cl)c(C)c3)c3ccc(Cl)c(-c4c(C)nn(C)c4C)c32)C(=O)N1c1ccc(C(=O)O)cc1 [Example 23, (R)-4-(7-chloro-10-(3-(4-chloro-3,5-dimethylphenoxy)propyl)-3-ethyl-1-oxo-6-(1,3,5-trimethyl-1H-pyrazol-4-yl)-3,4-dihydropyrazino[1,2-a]indol-2(1H)-yl)benzoic acid]	< 1		4900	
Cc1cc(OCCCc2c3n(c4c(-c5c(C)nn(CCN(C)C)c5C)c(Cl)ccc24)[C@H](C)CN(c2cn(C)c4cc(C(=O)O)ccc24)C3=O)cc(C)c1Cl [Example 309, (R)-3-(7-chloro-10-(3-(4-chloro-3,5-dimethylphenoxy)propyl)-6-(1-(2-(dimethylamino)ethyl)-3,5-dimethyl-1H-pyrazol-4-yl)-4-methyl-1-oxo-3,4-dihydropyrazino[1,2-a]indol-2(1H)-yl)-1-methyl-1H-indole-6-carboxylic acid]	< 1		530	
Cc1cc(OCCCc2c3n(c4c(-c5c(C)nn(C)c5C)c(Cl)ccc24)[C@H](C)CN(c2cccc4c(C(=O)O)c(C)n(C)c24)C3=O)cc(C)c1Cl [Example 417, (R)-7-(7-Chloro-10-(3-(4-chloro-3,5-dimethylphenoxy)propyl)-4-methyl-1-oxo-6-(1,3,5-trimethyl-1H-pyrazol-4-yl)-3,4-dihydropyrazino[1,2-a]indol-2(1H)-yl)-1,2-dimethyl-1H-indole-3-carboxylic acid]	1.3		340	
Cc1cc(OCCCc2c3n(c4c(-c5c(C)nn(C)c5C)c(Cl)ccc24)CCCN(c2cn(CCN4CCOCC4)c4cc(C(=O)O)ccc24)C3=O)cc(C)c1Cl [Example 89, 3-(8-Chloro-11-(3-(4-chloro-3,5-dimethylphenoxy)propyl)-1-oxo-7-(1,3,5-trimethyl-1H-pyrazol-4-yl)-4,5-dihydro-1H-[1,4]diazepino[1,2-a]indol-2(3H)-yl)-1-(2-morpholinoethyl)-1H-indole-6-carboxylic acid]	< 1		1300	
Cc1nc(-c2ccc3c(c2)c(N2C[C@@H](C)n4c(c(CCCOc5cc(C)c(Cl)c(C)c5)c5ccc(Cl)c(-c6c(C)nn(C)c6C)c54)C2=O)cn3C)no1 [Example 429, (R)-7-Chloro-10-(3-(4-chloro-3,5-dimethylphenoxy)propyl)-4-methyl-2-(1-methyl-5-(5-methyl-1,2,4-oxadiazol-3-yl)-1H-indol-3-yl)-6-(1,3,5-trimethyl-1H-pyrazol-4-yl)-3,4-dihydropyrazino[1,2-a]indol-1(2H)-one]	1.8		970	
Cc1cc(OCCCc2c3n(c4c(-c5c(C)ncnc5C)c(Cl)ccc24)CCCN(c2cc(C(=O)O)c4ccn(C)c4c2)C3=O)cc(C)c1Cl [Example 130, 6-[8-Chloro-11-[3-(4-chloro-3,5-dimethyl-phenoxy)propyl]-7-(4,6-dimethylpyrimidin-5-yl)-1-oxo-4,5-dihydro-3H-[1,4]diazepino[1,2-a]indol-2-yl]-1-methyl-indole-4-carboxylic acid]	< 1		2400	
Cc1cc(N2C[C@@H](C)n3c(c(CCCOc4cc(C)c(Cl)c(C)c4)c4ccc(Cl)c(-c5c(C)ncnc5C)c43)C2=O)c2c(c1)cc(C(N)=O)n2C [Example 376, (R)-7-(7-Chloro-10-(3-(4-chloro-3,5-dimethylphenoxy)propyl)-6-(4,6-dimethylpyrimidin-5-yl)-4-methyl-1-oxo-3,4-dihydropyrazino[1,2-a]indol-2(1H)-yl)-1,5-dimethyl-1H-indole-2-carboxamide]	6.5		750	
Cc1cc(OCCCc2c3n(c4c(-c5c(C)ncnc5C)c(Cl)ccc24)[C@H](C)CN(c2nn(C)c4cccc(C(=O)O)c24)C3=O)cc(C)c1Cl [Example 273, 3-[(4R)-7-chloro-10-[3-(4-chloro-3,5-dimethyl-phenoxy)propyl]-6-(4,6-dimethylpyrimidin-5-yl)-4-methyl-1-oxo-3,4-dihydropyrazino[1,2-a]indol-2-yl]-1-methyl-indazole-4-carboxylic acid]	< 1		4100	
Cc1cc(OCCCc2c3n(c4c(-c5c(C)nn(C)c5C)c(Cl)ccc24)[C@H](C)CN(c2cn(Cc4ccccn4)c4cc(C(=O)O)ccc24)C3=O)cc(C)c1Cl [Example 338, (R)-3-(7-Chloro-10-(3-(4-chloro-3,5-dimethylphenoxy)propyl)-4-methyl-1-oxo-6-(1,3,5-trimethyl-1H-pyrazol-4-yl)-3,4-dihydropyrazino[1,2-a]indol-2(1H)-yl)-1-(pyridin-2-ylmethyl)-1H-indole-6-carboxylic acid]	< 1		2000	
Cc1cc(OCCCc2c3n(c4c(-c5c(C)nn(C)c5C)c(Cl)ccc24)[C@H](C)CN(c2ccnc4c(C(=O)O)cccc24)C3=O)cc(C)c1Cl [Example 253, (R)-4-(7-Chloro-10-(3-(4-chloro-3,5-dimethylphenoxy)propyl)-4-methyl-1-oxo-6-(1,3,5-trimethyl-1H-pyrazol-4-yl)-3,4-dihydropyrazino[1,2-a]indol-2(1H)-yl)quinoline-8-carboxylic acid]	1.2		1100	
COCCOc1cc(N2C[C@@H](C)n3c(c(CCCOc4cc(C)c(Cl)c(C)c4)c4ccc(Cl)c(-c5c(C)nn(C)c5C)c43)C2=O)c2cc(C(=O)O)n(C)c2c1 [Example 328, (M, R)-4-(7-Chloro-10-(3-(4-chloro-3,5-dimethylphenoxy)propyl)-4-methyl-1-oxo-6-(1,3,5-trimethyl-1H-pyrazol-4-yl)-3,4-dihydropyrazino[1,2-a]indol-2(1H)-yl)-6-(2-methoxyethoxy)-1-methyl-1H-indole-2-carboxylic acid]	< 1	690		
Cc1cc(OCCCc2c3n(c4c(-c5c(C)nn(C)c5C)c(Cl)ccc24)[C@H](C)CN(c2cc(C(=O)O)cc4c2cnn4C)C3=O)cc(C)c1Cl [Example 84, (R)-4-(7-chloro-10-(3-(4-chloro-3,5-dimethylphenoxy)propyl)-4-methyl-1-oxo-6-(1,3,5-trimethyl-1H-pyrazol-4-yl)-3,4-dihydropyrazino[1,2-a]indol-2(1H)-yl)-1-methyl-1H-indazole-6-carboxylic acid]	< 1		1200	
Cc1cc(OCCCc2c3n(c4c(-c5c(C)nn(C)c5C)c(Cl)ccc24)[C@H](C)CN(c2cn(C)c4ccc(-c5ccccn5)cc24)C3=O)cc(C)c1Cl [Example 389, (R)-7-Chloro-10-(3-(4-chloro-3,5-dimethylphenoxy)propyl)-4-methyl-2-(1-methyl-5-(pyridin-2-yl)-1H-indol-3-yl)-6-(1,3,5-trimethyl-1H-pyrazol-4-yl)-3,4-dihydropyrazino[1,2-a]indol-1(2H)-one]	< 1		1500	
Cc1cc(OCCCc2c3n(c4c(-c5c(C)nn(C)c5C)c(Cl)ccc24)[C@H](C)CN(c2cc(Cl)cc4cc(C(=O)O)oc24)C3=O)cc(C)c1Cl [Example 259, (R)-5-Chloro-7-(7-chloro-10-(3-(4-chloro-3,5-dimethylphenoxy)propyl)-4-methyl-1-oxo-6-(1,3,5-trimethyl-1H-pyrazol-4-yl)-3,4-dihydropyrazino[1,2-a]indol-2(1H)-yl)benzofuran-2-carboxylic acid]	< 1			3500
Cc1nc(Cn2c(C(=O)O)cc3cccc(N4C[C@@H](C)n5c(c(CCCOc6cc(C)c(Cl)c(C)c6)c6ccc(Cl)c(-c7c(C)nn(C)c7C)c65)C4=O)c32)no1 [Example 314, 7-[(4R)-7-chloro-10-[3-(4-chloro-3,5-dimethyl-phenoxy)propyl]-4-methyl-1-oxo-6-(1,3,5-trimethylpyrazol-4-yl)-3,4-dihydropyrazino[1,2-a]indol-2-yl]-1-[(5-methyl-1,2,4-oxadiazol-3-yl)methyl]indole-2-carboxylic acid]	< 1		930	
Cc1cc(OCCCc2c3n(c4c(-c5c(C)nn(C)c5C)c(Cl)ccc24)[C@H](C)CN(c2cccc4c(C(=O)O)n(C)nc24)C3=O)cc(C)c1Cl [Example 54, (R)-7-(7-chloro-10-(3-(4-chloro-3,5-dimethylphenoxy)propyl)-4-methyl-1-oxo-6-(1,3,5-trimethyl-1H-pyrazol-4-yl)-3,4-dihydropyrazino[1,2-a]indol-2(1H)-yl)-2-methyl-2H-indazole-3-carboxylic acid]	< 1		320	
Cc1cc(OCCCc2c3n(c4c(-c5c(C)nn(C)c5C)c(Cl)ccc24)[C@H](C)CN(c2cccc4cc(C(=O)O)n(CC5CCO5)c24)C3=O)cc(C)c1Cl (stereo partly drawn) [Example 374, 7-((R)-7-Chloro-10-(3-(4-chloro-3,5-dimethylphenoxy)propyl)-4-methyl-1-oxo-6-(1,3,5-trimethyl-1H-pyrazol-4-yl)-3,4-dihydropyrazino[1,2-a]indol-2(1H)-yl)-1-(oxetan-2-ylmethyl)-1H-indole-2-carboxylic acid]	3.7		1500	

Source: patent US11596639B2, “Substituted indole Mcl-1 inhibitors” (Vanderbilt University, priority 2016, dated 2023)
